# Data from paper PMC10824102, “Identification of small molecule inhibitors of G3BP-driven stress granule formation” (The Journal of Cell Biology, 2024).
# Experiments:
# Type in all cases: cell-based
# U2OS cells = assay: Cytotoxicity assay (CellTiter-Glo, ATP levels); settings: 24 h, ATP levels by luciferase signal
# Description: U2OS (HTB-96), HEK293T (CRL-3216), and HeLa (CCL-2) cells were originally purchased from ATCC and periodically authenticated by short tandem repeat (STR) profiling. Cells were grown in Dulbecco’s modified Eagle’s medium (DMEM) supplemented with 10% fetal bovine serum (FBS), 1% penicillin/streptomycin, and 1% L-glutamine. Cells were counted using ADAM-CellT (NanoEntek), plated, and transfected using either Lipofectamine 3000 (L3000008; Thermo Fisher Scientific) or Viafect (E4981; Promega) for transient overexpression according to the manufacturer’s instructions. Cytotoxicity was assayed using CellTiter-Glo 2.0 reagent (Promega) according to the manufacturer’s instructions.
# [1] = test system: stress granule formation in HeLa cells stably expressing G3BP1-GFP; assay: Preincubation, arsenite-induced stress granule formation, live cell imaging in HeLa; settings: Homo sapiens, 20 min pretreatment, 250 μM NaAsO2, read-out: inhibition of stress granule formation compared with inactive enantiomer
# Description: (§1) For preincubation of compounds, U2OS or HeLa cells stably expressing G3BP1-GFP or CRISPR-modified cells expressing TDP-43-GFP/G3BP1-GFP were seeded into eight-well Lab-Tek chambered cover glass (Nunc). At least 20 min prior to the experiment, 1 ml FluoroBrite DMEM media (Gibco) supplemented with 10% FBS and 4 mM L-glutamine was combined with 0.1% DMSO or G3I compound (5, 10, or 50 μM). This solution was vortexed for 5 s, added to the cells at 250 μl per well, and left to incubate on the microscope for 20 min. Conditions were maintained at 37°C and 5% CO2 using a Bold Line Cage Incubator (Okolab) and an objective heater (Bioptechs). During this incubation time, 5 xy fields were stored per condition, with each field having ∼20–30 cells within it. After the 20-min incubation, 250 μl of 500 μM or 1 mM (2×) sodium arsenite (Sigma-Aldrich) diluted in the FluoroBrite media with an appropriate amount of G3I compound or DMSO was added to the sample. Imaging began immediately after, with images at each xy field being taken every 1 min. For heat shock experiments, U2OS G3BP1-GFP-expressing cells were seeded into a 35-mm glass bottom dish (MatTek). Prior to the experiment, 1.5 ml FluoroBrite DMEM media (Gibco) supplemented with 10% FBS and 4 mM L-glutamine was combined with 0.1% DMSO or 50 μM G3I compound. The sample was incubated on the environmentally controlled microscope for 20 min. […]
# [2] = test system: stress granule formation in U2OS cells stably expressing G3BP1-GFP; assay: Preincubation, heat shock-induced stress granule formation in U2OS; settings: 50 μM, 20 min pretreatment, 43°C heat shock, 15 min post heat shock
# Description: as §1
# [3] = test system: eIF3η, PABPC1, and FXR1 puncta in U2OS cells stably expressing G3BP1-GFP; assay: Immunofluorescence of additional stress granule markers after post-addition; settings: 250 μM NaAsO2 for 30 min, then 50 μM compound for 5 min
# Description: U2OS cells or U2OS cells stably expressing G3BP1-GFP were seeded in four-well Lab-Tek II Chambered Coverglass (1055360; Thermo Fisher Scientific). For preincubation experiments, cells were treated with 50 μM G3I compound for 20 min or 24 h, followed by 250 μM NaAsO2 and 50 μM G3I compound for 30 min. For posttreatment, cells were treated with 250 μM NaAsO2 for 30 min, followed by treatment with 250 μM NaAsO2 and 50 μM G3I compound for 5 min. Cells were then washed twice with PBS and fixed with 4% PFA in PBS for 10 min. Cells were then washed three times with PBS (5 min between each wash), permeabilized with 0.5% Triton X-100 in PBS for 10 min, and washed twice with PBS. Next, cells were blocked for 1 h with 3% BSA in PBS at room temperature, followed by incubation with primary antibodies diluted in 3% BSA overnight at 4°C. Cells were then washed three times with PBS (5 min between each wash) and incubated with secondary antibodies and Hoechst diluted in 3% BSA at room temperature for 1 h. Cells were then washed three times with PBS (5 min between each wash) and imaged. […]
SMILES,cell-based toxicity (U2OS cells),inhibition at 50 µM [1] [%],reduction of stress granule formation compared with inactive enantiomer [2] [%],"eIF3η, PABPC1, and FXR1 puncta [3]"
COCCC(NC(=O)C(C)NC(=O)C(NC(=O)C(NC(=O)C(F)CC(C)(C)C)C(C)(C)O)C(C)c1ccccc1)C(=O)N(C)Cc1ccccc1 (centres unmarked) [G3Ia],do not appear to induce cellular toxicity or growth phenotypes,~72,~79,"reduced eIF3η, PABPC1, and FXR1 puncta"
CC(NC(=O)C(NC(=O)C(NC(=O)CCC(C)(C)C)C(C)(C)O)C(C)c1ccccc1)C(=O)N1CCCC1c1ccccc1 (centres unmarked) [G3Ib],do not appear to induce cellular toxicity or growth phenotypes,~82,~82,"reduced eIF3η, PABPC1, and FXR1 puncta"
